From paper PMC7311426, “An amphipathic peptide with antibiotic activity against multidrug-resistant Gram-negative bacteria” (Nature Communications, 2020)
Converted amounts (≈) assume the structure as drawn. Where two headings read alike, the source gives them in different places.

Tests used:
Assay in all cases: microbe, parasite or virus in culture
[1] = test system: A. baumannii clinical isolates
Procedure, shortened: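 MIC90 from CLSI broth microdilution (M07-A9) in two clinical-isolate panels. US panel (331 isolates, 2010-2012): AA139 diluted in 0.01% acetic acid/0.1% BSA. Worldwide panel (445 isolates, 2011-2013, four regions): CAMHB, with 0.002% Tween 80 added for AA139 and polymyxin B.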

[2] = test system: A. baumannii; conditions: Acinetobacter baumannii, mode of 6 replicates
Procedure, shortened: (§1)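 MICs were scored by eye after 18-20 h static incubation at 37 °C, with bacteria at 5 × 10^5 CFU mL^−1 in MHB. Peptides were serially diluted 2-fold over 12 points, top 128 or 64 μg mL^−1. CAMHB (CLSI) and 1% agarose-MHB variants were also run, at least six replicates.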

[3] = test system: S. enterica Typhi; conditions: Salmonella enterica, ATCC14028 / TYPHI, read-out: BMD MIC
Procedure, shortened: as §1

[4] = test system: P. aeruginosa; conditions: Pseudomonas aeruginosa, mode of 6 replicates
Procedure, shortened: as §1

[5] = test system: S. aureus; conditions: Staphylococcus aureus, ATCC25923 / MSSA, read-out: BMD MIC
Procedure, shortened: as §1

[6] = test system: K. pneumoniae; conditions: Klebsiella pneumoniae, mode of 6 replicates
Procedure, shortened: as §1

[7] = test system: E. coli; conditions: Escherichia coli
Procedure, shortened: as §1

[8] = Worldwide isolates 2011-2013, A. baumannii n = 108

In the case of `CNC(C)C1CCC(N)C(OC2C(N)CC(N)C(OC3OCC(C)(O)C(NC)C3O)C2O)O1` (stereo not shown) [Gentamicin, gentamicin, reference compound], the MIC90 ([1]; Acinetobacter baumannii) is reported as > 32 µg/mL, the MIC90 ([1]; US isolates 2010–2012, A. baumannii MDR, n = 19) is reported as >32 µg/mL and the MIC90 ([1]; US isolates 2010–2012, A. baumannii XDR, n = 31) is reported as >32 µg/mL. The MIC50 [1, 8] was > 32 µg/mL, the MIC90 [1, 8] was > 32 µg/mL and the MIC ([2]; ATCC19636, read-out: BMD MIC, A. baumannii ATCC 19636 type strain, CAMHB) was 16 µg/mL (≈ 33.5 µM). For the same compound, the MIC ([2]; ATCC19636, read-out: BMD MIC, A. baumannii ATCC 19636 type strain, MHB) was 32 µg/mL (≈ 67 µM), the MIC ([2]; read-out: BMD MIC, A. baumannii Greece CI, XDR, PmxR, MHB) was > 32 µg/mL and the MIC [3] was 1 µg/mL (≈ 2.09 µM). It also gave an MIC ([4]; ATCC27853, read-out: BMD MIC, P. aeruginosa ATCC 27853 control strain, CAMHB) of 1 µg/mL (≈ 2.09 µM), an MIC ([4]; ATCC27853, read-out: BMD MIC, P. aeruginosa ATCC 27853 control strain, MHB) of 1 µg/mL (≈ 2.09 µM) and an MIC ([4]; read-out: BMD MIC, P. aeruginosa FADDI-070, MDR, PmxR, MHB/CAMHB) of 32 µg/mL (≈ 67 µM). The MIC [5] was 4 µg/mL (≈ 8.38 µM), the MIC ([6]; ATCC13883, read-out: BMD MIC, K. pneumoniae ATCC 13883 type strain (polymyxin/colistin heteroresistant), MHB) was 0.5 µg/mL (≈ 1.05 µM) and the MIC ([6]; ATCC700603, read-out: BMD MIC, K. pneumoniae ATCC 700603 (K6), MDR, OXA-2/SHV-18, CAMHB) was 4 µg/mL (≈ 8.38 µM). For the same compound, the MIC ([6]; ATCC700603, read-out: BMD MIC, K. pneumoniae ATCC 700603 (K6), MDR, OXA-2/SHV-18, MHB) was 4 µg/mL (≈ 8.38 µM), the MIC ([6]; BAA2146, read-out: BMD MIC, K. pneumoniae BAA-2146, MDR, ESBL, NDM-1 pos, MHB) was > 32 µg/mL and the MIC ([7]; ATCC25922, read-out: BMD MIC, E. coli ATCC 25922 FDA control strain, CAMHB, mode of 6 replicates) was ≤ 0.25 µg/mL. The MIC ([7]; ATCC25922, read-out: BMD MIC, E. coli ATCC 25922 FDA control strain, MHB, mode of 6 independent biological replicates) was 1 µg/mL (≈ 2.09 µM), the MIC ([7]; ATCC700926|MG1655, read-out: BMD MIC, E. coli ATCC 700926 K12 (MG1655), CAMHB, mode of 6 replicates) was 0.5 µg/mL (≈ 1.05 µM) and the MIC ([7]; ATCC700928, read-out: BMD MIC, E. coli ATCC 700928 CFT073 UPEC, CAMHB, mode of 6 replicates) was 0.5 µg/mL (≈ 1.05 µM). It also gave an MIC ([7]; read-out: BMD MIC, E. coli CI 12-6-83 Hong Kong, mcr-1 pos, ESBL, CAMHB, mode of 6 replicates) of 0.5 µg/mL (≈ 1.05 µM).
